Publication PMC10331583, “Control of fibrosis with enhanced safety via asymmetric inhibition of prolyl‐tRNA synthetase 1” (EMBO Molecular Medicine, 2023)
Where “and” joins values, the source holds several entries; their conditions need not be identical. Equal values may be shown once. Read-outs that look alike come from different tables or passages of the source.

Assays:
[1] = tested on: TNT Quick Coupled Transcription/Translation System (luciferase synthesis); format: biochemical
[2] = tested on: WI‐26 VA4 cells; assay: Puromycin incorporation assay; format: cell-based, human; settings: for activity at 0.003 µM: WI26VA4, 3 nM; for activity at 0.01 µM: WI26VA4, 10 nM; for activity at 0.03 µM: WI26VA4, 30 nM; for activity at 0.1 µM: WI26VA4, 100 nM; for activity at 0.3 µM: WI26VA4, 300 nM; for activity at 0.5 µM: WI26VA4, 500 nM; for activity at 1 µM: WI26VA4, 1000 nM
Procedure: After being rinsed with cold PBS twice, the cells were collected and resuspended in 200 μl of the carbonate bicarbonate buffer (Sigma Aldrich, C3041‐50CAP) with protease inhibitor. The cell lysates were obtained by sonication and centrifugation at 20,000 g for 15 min at 4°C. After protein quantification using a Pierce™ BCA Protein Assay Kit (Thermo Fisher Scientific, 23225), 400 ng of the proteins was coated to ELISA plates for 18 h at 4°C. […] The plates were rinsed with the washing buffer for three times after each antibody incubation step. […] The amount of puromycin incorporated in proteins was determined by measuring the absorbance at 450 nm (reference wavelength at 620 nm). Experimental values marked in red with strikethrough text in the Figure Source Data file were excluded from the analysis. These values were determined by considering the values of biological and technical replicates under the same condition, as well as the values at the former and later chemical concentrations.

[3] = tested on: WI‐26 VA4 cells; assay: Collagen ELISA (secreted pro‐collagen I)
[4] = log(inhibitor) vs. response, variable slope (four parameters), concentration in nM
[5] = Homo sapiens, read-out: Puromycin, % of control, average
[6] = Homo sapiens, read-out: Puromycin, % of control, single replicate
[7] = log(inhibitor) vs. response, variable slope (four parameters)

Cc1c(Br)cnc2c1ncn2CC(=O)C[C@H]1NCCC[C@@H]1O [DWN11761]
TNT-luciferase % of control ([1]; 6000 nM, Experiment #1, replicates, 6 µM): 0.05 % of control and 0.047 % of control and 0.06 % of control | TNT-luciferase % of control ([1]; 6000 nM, Experiment #2, replicates, 6 µM): 0.15 % of control and 0.14 % of control (2×) | TNT-luciferase % of control ([1]; 6000 nM, Experiment #3, replicates, 6 µM): 0.14 % of control (2×) and 0.12 % of control | TNT-luciferase % of control, average ([1]; 6000 nM): 0.11 % of control | TNT-luciferase % of control ([1]; 20000 nM, Experiment #1, replicates, 20 µM): -0.0091 % of control and -0.014 % of control and -0.00199 % of control | TNT-luciferase % of control ([1]; 20000 nM, Experiment #2, replicates, 20 µM): 0.00206 % of control and -0.00211 % of control and -0.00412 % of control | TNT-luciferase % of control ([1]; 20000 nM, Experiment #3, replicates, 20 µM): 0.02 % of control and -0.0067 % of control and 0.00433 % of control | TNT-luciferase % of control, average ([1]; 20000 nM): -0.00128 % of control | TNT-luciferase LogIC50 (best-fit value) [1, 4]: 2.775 | IC50 ([1]; log(inhibitor) vs. response, variable slope (four parameters), unit from head concentration (nM), read-out: TNT-luciferase IC50 (best-fit value)): 595 nM | Puromycin, % of control, single replicate ([2]; 3 nM, 0.003 µM): 104.76 % of control and 100.60 % of control and 105.06 % of control and 105.49 % of control and 105.21 % of control and 111.96 % of control and 104.24 % of control | Puromycin, % of control, single replicate ([2]; 10 nM, 0.01 µM): 99.99 % of control and 99.81 % of control and 108.66 % of control and 104.16 % of control and 106.55 % of control and 105.60 % of control and 106.56 % of control | Puromycin, % of control, single replicate ([2]; 30 nM, 0.03 µM): 101.89 % of control and 99.32 % of control and 110.82 % of control and 110.04 % of control and 108.90 % of control and 103.15 % of control and 106.42 % of control | Puromycin, % of control, single replicate ([2]; 100 nM, 0.1 µM): 112.55 % of control and 117.55 % of control and 127.48 % of control and 125.28 % of control and 125.52 % of control and 127.16 % of control and 126.25 % of control | Puromycin, % of control, single replicate ([2]; 300 nM, 0.3 µM): 109.98 % of control and 112.11 % of control and 119.25 % of control and 120.23 % of control and 124.85 % of control and 125.66 % of control and 106.56 % of control | Puromycin, % of control, single replicate ([2]; 500 nM, 0.5 µM): 54.77 % of control and 53.35 % of control and 56.10 % of control and 56.57 % of control and 57.43 % of control and 59.14 % of control and 54.96 % of control | Puromycin, % of control, single replicate ([2]; 1000 nM, 1 µM): 28.04 % of control and 30.25 % of control and 30.46 % of control and 30.97 % of control and 31.52 % of control and 29.73 % of control and 28.78 % of control | Puromycin, % of control, single replicate ([2]; 3000 nM, 3 µM): 0.34 % of control and -0.19 % of control and -0.45 % of control and 0.86 % of control and 1.02 % of control and 0.90 % of control and 0.51 % of control and -0.71 % of control | Puromycin, % of control, single replicate ([2]; 10000 nM, 10 µM): 0.48 % of control and -0.27 % of control and -0.54 % of control and 1.84 % of control and 0.67 % of control and 0.24 % of control and 0.33 % of control and 0.60 % of control | Puromycin, % of control, single replicate ([2]; 100000 nM, 100 µM): 0.17 % of control and 0.43 % of control and -0.14 % of control and 0.04 % of control and 0.27 % of control and -0.04 % of control and 0.92 % of control and 0.65 % of control | activity at 0.003 µM [2, 5]: 105% | activity at 0.003 µM [2, 6]: 104% | activity at 0.01 µM [2, 5]: 104% | activity at 0.01 µM [2, 6]: 101% | activity at 0.03 µM [2, 5]: 105% | activity at 0.03 µM [2, 6]: 103% | activity at 0.1 µM [2, 5]: 122% | activity at 0.1 µM [2, 6]: 114% | activity at 0.3 µM [2, 5]: 117% | activity at 0.3 µM [2, 6]: 115% | activity at 0.5 µM [2, 5]: 55.6% | activity at 0.5 µM [2, 6]: 52.3% | activity at 1 µM [2, 5]: 29.5% | activity at 1 µM [2, 6]: 26.2% | activity at 3 µM ([2]; Homo sapiens, WI26VA4, 3000 nM, read-out: Puromycin, % of control, average): 0.29% | activity at 10 µM ([2]; Homo sapiens, WI26VA4, 10000 nM, read-out: Puromycin, % of control, average): 0.42% | activity at 30 µM ([2]; Homo sapiens, WI26VA4, 30000 nM, read-out: Puromycin, % of control, average): -0.13% | activity at 100 µM ([2]; Homo sapiens, WI26VA4, 100000 nM, read-out: Puromycin, % of control, average): 0.29% | IC50 ([2]; Homo sapiens, WI26VA4, log(inhibitor) vs. response, variable slope (four parameters), read-out: Puromycin, IC50 (best-fit value)): 581 nM | Puromycin, HillSlope (best-fit value) [2, 7]: -3.124 | Puromycin, LogIC50 (best-fit value) [2, 4]: 2.764 | Collagen, % of control (single replicates per experiment) ([3]; 1 nM, 0.001 µM): 99.09 % of control and 89.14 % of control and 102.78 % of control and 94.15 % of control and 107.84 % of control | Collagen, % of control (single replicates per experiment) ([3]; 3 nM, 0.003 µM): 120.43 % of control and 98.90 % of control and 84.42 % of control and 95.43 % of control and 97.10 % of control and 104.96 % of control | Collagen, % of control (single replicates per experiment) ([3]; 30 nM, 0.03 µM): 79.96 % of control and 82.37 % of control | CC50/collagen IC50 ([3]; Fig 5E): 5.47 | IC50 ([3]; Homo sapiens, WI26VA4, read-out: Collagen IC50 (best-fit value), log(inhibitor) vs. response, variable slope (four parameters) (converted)): 53.7 nM | activity at 0.001 µM ([3]; Homo sapiens, WI26VA4, read-out: Collagen, % of control (single replicates per experiment), 1 nM): 109% | activity at 0.1 µM ([3]; Homo sapiens, WI26VA4, read-out: Collagen, % of control (single replicates per experiment), 100 nM): 20.2% | activity at 0.3 µM ([3]; Homo sapiens, WI26VA4, read-out: Collagen, % of control (single replicates per experiment), 300 nM): 3.63% | activity at 0.001 µM ([3]; Homo sapiens, WI26VA4, read-out: Collagen, % of control, average, 1 nM, average): 100% | activity at 0.003 µM ([3]; Homo sapiens, WI26VA4, read-out: Collagen, % of control, average, 3 nM, average): 100% | activity at 0.01 µM ([3]; Homo sapiens, WI26VA4, read-out: Collagen, % of control, average, 10 nM, average): 101% | activity at 0.03 µM ([3]; Homo sapiens, WI26VA4, read-out: Collagen, % of control, average, 30 nM, average): 80.4% | activity at 0.1 µM ([3]; Homo sapiens, WI26VA4, read-out: Collagen, % of control, average, 100 nM, average): 20.6% | activity at 0.3 µM ([3]; Homo sapiens, WI26VA4, read-out: Collagen, % of control, average, 300 nM, average): 3.18% | activity at 1 µM ([3]; Homo sapiens, WI26VA4, read-out: Collagen, % of control, average, 1000 nM, average): 1.53% | activity at 3 µM ([3]; Homo sapiens, WI26VA4, read-out: Collagen, % of control, average, 3000 nM, average): 1.46% | Collagen HillSlope (best-fit value) [3, 7]: -2.337 | Collagen LogIC50 (best-fit value) [3, 4]: 1.73 | Relative (CC50)/(collagen IC50) ([3]; relative to HF, Fig 5E): 1.63
